In patent US11306082B2, “Esters of dihydrotetrabenazine” (Foresee Pharmaceuticals Co., Ltd., priority 2017, dated 2022):
Values after ≈ are worked out from the molar mass of the structure shown.

What was measured:
VMAT2 [1] = biological target: VMAT2 (Bos taurus, UniProt Q27963); settings: Scherman et al., 1983; cited from earlier work
[2] = Solubility in pharmaceutical acceptable organic solvents; format: physicochemical; settings: for solubility: organic solvent or mixture, thermodynamic from solid, 37° C.
Method: Previously, non-aqueous solvents, such as organic solvents, have long been utilized in injectable pharmaceutical products to dissolve water-insoluble drugs. Here, the solubility of compounds of the present application in various organic solvents were tested. The compound suspensions in various pharmaceutical acceptable organic solvents, including dimethylacetamide (DMAc), Dimethyl sulfoxide (DMSO), triacetin (TA), were stirred at 37° C. at designed time interval. At the designed time point, 0.5 mL aliquots were taken and centrifuged at 14,000 rpm for 2 min without temperature control. The supernatant was diluted with ACN and then analyzed by HPLC to determine the amount of dissolved compounds.

[3] = Color stability in organic solvents at 37° C.; format: physicochemical; settings: incubation at 37° C. for 7 days, organic solvents (FIG. 1)
[4] = Solubility in pharmaceutical acceptable oils; format: physicochemical; settings: for solubility in pharmaceutical acceptable oils (in words): castor, peanut, soybean oil; for solubility: oil or lipid, thermodynamic from solid, 37° C.
Method: Conventionally, fatty acids are used to conjugate with a drug to enhance drug's lipophilicity to increase its solubility in oils. The solubility of compounds of the present application in various oils were tested. The suspension of compounds in various pharmaceutical acceptable oils, including castor oil, sesame oil, cottonseed oil, peanut oil and soybean oil, were stirred at 37° C. for 2-3 days. At designed time point, about 200 to 300 μL aliquots were taken and centrifuged at 14,000 rpm for 2 min without temperature control. The supernatant was carefully withdrawn and extracted with 9 folds of ACN. The mixture was then vortexed for 30 sec and subsequently centrifuged at 14,000 rpm for 2 min without temperature control. The supernatant (300 uL) was taken and diluted with 1 fold of isopropanol (IPA) and then analyzed by HPLC to determine the amount of dissolved compounds. The oil without compound after same extraction/dilution step was used as control. […] The higher oil solubility can be advantageously used to make long acting or sustained release formulation to deliver the active compounds.

[5] = biological target: Vesicular Monoamine Transporter Isoform 2 (VMAT2) (UniProt Q01827); test: VMAT2 competition binding assay ([3H]dihydrotetrabenazine, whole brain membranes); settings: for IC50: read-out: VMAT2 binding affinity IC50, [3H]Dihydrotetrabenazine 10 nM, 30 min at 25° C.; for Ki: read-out: VMAT2 binding affinity Ki, Cheng-Prusoff from IC50
Method: IC50 values were determined by a non-linear, least squares regression analysis using MathIQ™ (ID Business Solutions Ltd., UK).

[6] = Aqueous solubility of compounds; format: physicochemical; settings: for aqueous solubility compared with compound IV: all tested conditions; for solubility: aqueous buffer, thermodynamic from solid, 37° C.
Method: Compound suspensions (2 mg/m L) in various aqueous solutions, including 10 mM pH 4.0 citrate-saline buffer, 10 mM pH 5.0 citrate-saline buffer, 10 mM pH 5.8 PBS, 10 mM pH 7.4 PBS, 10 mM pH 8.5 borate-saline buffer, pure water and serum, were stirred at 37° C. for 2-3 days. Daily, 0.5 to 1 mL aliquots were taken and centrifuged at 14,000 rpm for 2 min without temperature control. The supernatant was analyzed by HPLC to determine the amount of dissolved compounds.

[7] = test system: porcine liver esterase (PLE); test: Enzymatic ester hydrolysis via porcine liver esterase; format: in vitro ADME
[8] = human liver assay, response in application Ser. No. 11/937,445; cited from earlier work
VMAT2 [9] = biological target: VMAT2 (Rattus norvegicus, UniProt Q01827); settings: as disclosed in U.S. Pat. No. 8,039,627; read-out: VMAT2 binding affinity, Ki; cited from earlier work
Chain of VMAT2 (Rattus norvegicus, UniProt Q01827) (Q01827 whole entry): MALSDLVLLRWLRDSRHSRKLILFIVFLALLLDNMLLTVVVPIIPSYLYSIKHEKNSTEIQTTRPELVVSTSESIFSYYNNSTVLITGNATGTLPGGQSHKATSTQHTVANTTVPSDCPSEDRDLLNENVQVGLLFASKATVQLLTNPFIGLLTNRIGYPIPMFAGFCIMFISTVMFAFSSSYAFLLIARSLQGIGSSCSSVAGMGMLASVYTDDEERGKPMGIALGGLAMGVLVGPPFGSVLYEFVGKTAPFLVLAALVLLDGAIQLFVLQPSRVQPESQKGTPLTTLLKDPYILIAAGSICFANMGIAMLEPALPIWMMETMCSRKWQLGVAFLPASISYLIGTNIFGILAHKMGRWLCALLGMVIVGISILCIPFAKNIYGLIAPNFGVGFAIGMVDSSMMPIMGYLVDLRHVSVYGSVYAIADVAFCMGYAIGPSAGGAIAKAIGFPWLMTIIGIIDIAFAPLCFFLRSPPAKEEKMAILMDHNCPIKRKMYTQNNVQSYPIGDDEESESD

VMAT2 [10] = settings: see 17 of the Declaration; cited from earlier work
[11] = borate-saline buffer, Borate (10 mM, pH 8.5)
[12] = citrate-saline buffer, Citrate buffer (10 mM, pH 5.0)

Chain of VMAT2 (Bos taurus, UniProt Q27963) (Q27963 whole entry): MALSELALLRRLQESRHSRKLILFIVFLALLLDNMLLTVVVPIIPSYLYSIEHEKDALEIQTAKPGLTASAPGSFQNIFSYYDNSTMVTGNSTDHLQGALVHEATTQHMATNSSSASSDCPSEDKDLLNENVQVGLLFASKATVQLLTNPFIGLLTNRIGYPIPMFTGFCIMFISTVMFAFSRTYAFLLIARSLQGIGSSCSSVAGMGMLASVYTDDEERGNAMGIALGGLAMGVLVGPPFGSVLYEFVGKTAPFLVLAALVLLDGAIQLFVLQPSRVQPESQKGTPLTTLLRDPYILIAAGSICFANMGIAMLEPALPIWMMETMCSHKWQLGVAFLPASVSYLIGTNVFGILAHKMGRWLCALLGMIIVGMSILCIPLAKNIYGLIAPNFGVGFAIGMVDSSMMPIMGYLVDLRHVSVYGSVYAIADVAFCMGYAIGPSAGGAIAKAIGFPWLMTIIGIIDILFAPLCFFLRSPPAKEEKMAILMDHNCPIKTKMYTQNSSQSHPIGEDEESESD

For `COc1cc2c(cc1OC)C1CC(=O)C(CC(C)C)CN1CC2` (racemic) [TBZ, 3-isobutyl-9,10,dimethoxy-1,3,4,6,7,11b-hexahydro-2H-pyrido[2,1-a]isoquinolin-2-one], the IC50 (VMAT2 [1]) is listed as 0.0032 µM.

For `CCCCCCCCCCCCCCCC(=O)O[C@@H]1C[C@@H]2c3cc(OC)c(OC)cc3CCN2C[C@H]1CC(C)C` [Compd 1-1, (2R,3R, 11bR)-3-isobutyl-9,10-dimethoxy-1,3,4,6,7,11b-hexahydro-2H-pyrido[2,1-a]isoquinolin-2-yl palmitate], the “solubility in organic solvents (in words)” value ([2]; all tested solvent (DMSO, DMAc, triacetin)) was “good solubility”, the solubility ([2]; DMAc) was 513000 µg/mL (≈ 919 mM) and the solubility ([2]; DMSO) was 7800 µg/mL (≈ 14 mM). The solubility ([2]; Triacetin) was 29900 µg/mL (≈ 53.6 mM), the “color change in organic solvents” value [3] was “no or minimal color change” and the “solubility in pharmaceutical acceptable oils (in words)” value [4] was “fair to good solubility”. For the same compound, the solubility ([4]; Castor oil) was 370000 µg/mL (≈ 663 mM), the solubility ([4]; Peanut oil) was 266000 µg/mL (≈ 478 mM) and the solubility ([4]; Soybean oil) was 277000 µg/mL (≈ 496 mM). For the same compound, the IC50 [5] was > 10 µM, the Ki [5] was > 10 µM and the “aqueous solubility compared with compound IV” value [6] was “significantly lower aqueous solubility”. For the same compound, the solubility ([6]; PBS (10 mM, pH 5.8)) was < 1 µg/mL, the solubility ([6]; PBS (10 mM, pH 7.4)) was 1 µg/mL (≈ 0.00179 mM) and the solubility [6, 11] was 32.6 µg/mL (≈ 0.0584 mM). The solubility [6, 12] was < 1 µg/mL, the “hydrolysis to release (+)-α-DHTBZ (in words)” value ([7]; PLE/compound ratio of 5 or above) was “can be hydrolyzed” and the “(+)-α-DHTBZ released by ester hydrolysis” value ([7]; PLE:compound 1-1 1:1, incubation 80 min, 37° C.) was “BQL”.

In the case of `CCCCCCCCCCCCCCCCCCCCCC(=O)O[C@@H]1C[C@@H]2c3cc(OC)c(OC)cc3CCN2C[C@H]1CC(C)C` [Compd 1-2, (2R,3R, 11bR)-3-isobutyl-9,10-dimethoxy-1,3,4,6,7,11b-hexahydro-2H-pyrido[2,1 a]isoquinolin-2-yl behenate], the solubility ([2]; DMAc) is reported as 8810 µg/mL (≈ 13.7 mM), the solubility ([2]; DMSO) is reported as 150 µg/mL (≈ 0.234 mM) and the “color change in organic solvents” value [3] is reported as “no or minimal color change”. The “solubility in pharmaceutical acceptable oils (in words)” value [4] was “fair to good solubility”, the solubility ([4]; Castor oil) was 31400 µg/mL (≈ 48.9 mM) and the solubility ([4]; Peanut oil) was 70200 µg/mL (≈ 109 mM). For the same compound, the solubility ([4]; Soybean oil) was 96400 µg/mL (≈ 150 mM), the IC50 [5] was > 10 µM and the Ki [5] was > 10 µM. For the same compound, the “aqueous solubility compared with compound IV” value [6] was “significantly lower aqueous solubility”, the solubility ([6]; PBS (10 mM, pH 5.8)) was < 1 µg/mL and the solubility ([6]; PBS (10 mM, pH 7.4)) was < 1 µg/mL. For the same compound, the solubility [6, 11] was 1.7 µg/mL (≈ 0.00265 mM) and the solubility [6, 12] was < 1 µg/mL.

For `COc1cc2c(cc1OC)[C@H]1C[C@@H](O)[C@H](CC(C)C)CN1CC2` [Compd IV, (2R, 3R, 11bR)-3-isobutyl-9,10-dimethoxy-1,3,4,6,7,11b-hexahydro-2H-pyrido[2,1-a]isoquinolin-2-ol, reference compound], the solubility ([2]; DMAc) was 555000 µg/mL (≈ 1740 mM), the solubility ([2]; DMSO) was 410000 µg/mL (≈ 1280 mM) and the solubility ([2]; Triacetin) was 26100 µg/mL (≈ 81.7 mM). For the same compound, the “color change in organic solvents” value [3] was “significant color change”, the “solubility in pharmaceutical acceptable oils (in words)” value [4] was “fair to good solubility” and the solubility ([4]; Castor oil) was 30000 µg/mL (≈ 93.9 mM). The solubility ([4]; Peanut oil) was 10100 µg/mL (≈ 31.6 mM), the solubility ([4]; Soybean oil) was 8000 µg/mL (≈ 25 mM) and the solubility ([6]; PBS (10 mM, pH 5.8)) was 1380 µg/mL (≈ 4.32 mM). For the same compound, the solubility ([6]; PBS (10 mM, pH 7.4)) was 244 µg/mL (≈ 0.763 mM), the solubility [6, 11] was 140 µg/mL (≈ 0.439 mM) and the solubility [6, 12] was > 2000 µg/mL.

In the case of `COc1cc2c(cc1OC)[C@H]1C[C@@H](OC(=O)[C@@H](N)C(C)C)[C@H](CC(C)C)CN1CC2` [VBZ, (S)-2-amino-3-methyl-butyric acid (2R, 3R, 11bR)-3-isobutyl-9,10-dimethoxy-1,3,4,6,7,11b-hexahydro-2H-pyrido[2,1-a]isoquinolin-2-yl], the “conversion to (+)-α-DHTBZ” value [8] is given as “can release the active (+)-α-DHTBZ” and the Ki (VMAT2 [9]) is given as 0.187 µM.

In the case of `COc1cc2c(cc1OC)C1CC(OC(C)=O)C(CC(C)C)CN1CC2` (stereo not shown) [acetate ester of Kilbourn], the “conversion to (+)-α-DHTBZ” value [8] is given as “no conversion” and the Ki (VMAT2 [10]) is given as 0.016 µM.
